Test results: a melting point compilation (Tetko et al.)

Compound | melting point
O=C(O)c1cnc(Cl)nc1Cl | 96 to 98 °C
N#Cc1ccsc1C(=O)O | 191 to 193 °C
Cc1ccccc1OCc1nnc(S)[nH]1 | 110 to 112 °C
Cn1ccnc1C(N)c1ccccc1F (configuration not stated) | 58 to 60 °C
COc1cc(C=O)c([N+](=O)[O-])cc1O | 207 to 209 °C
ClCc1ncc(-c2ccc(Br)cc2)o1 | 80 to 82 °C
O=C1CS/C(=C/C(=O)c2cccc(Cl)c2)N1 | 207 to 209 °C
c1cn(C2CCNCC2)cn1 | 135 to 137 °C
Nc1ccc(Cl)nc1N | 129 to 131 °C
CN(C)c1ccc(C(=N)N)c(Cl)c1 | 148 to 150 °C
O=C(O)CCc1nc(-c2cc(Br)cs2)no1 | 129 to 131 °C
NC(=O)c1cnc(Cl)cn1 | 166 to 168 °C
O=C(NC1CC1)c1cc(S)nc2ccccc12 | 301 to 303 °C
O=c1[nH]c(C(F)(F)F)cs1 | 91 to 93 °C
Nc1ccc(Sc2ccccn2)c(Cl)c1 | 110 to 112 °C
CN(C)S(=O)(=O)c1cccc(CO)c1 | 65 to 67 °C
CCN1CCCC1CNS(=O)(=O)c1ccc(N)cc1 (configuration not stated) | 101 to 103 °C
Cc1cnn(CC(=O)O)c1 | 172 to 174 °C
O=S(=O)(NC1CCNCC1)c1ccc(Cl)cc1 | 189 to 191 °C
Cc1ccc(C)n1-c1ccc(Br)cc1 | 61 to 63 °C
O=C(O)c1cccc(CO)c1 | 111 to 113 °C
O=C(O)c1ccc(C(F)F)cc1 | 205 to 207 °C
CC(c1ccccc1)n1c(N)nc2ccccc21 (configuration not stated) | 124 to 126 °C
CC(C)(C)OC(=O)N1CC[C@H](O)C1 | 60 to 62 °C
NC(=O)CCc1ccccc1 | 100 to 102 °C

Compound | melting point
CCNC(=O)c1cc(Cl)ccc1N | 122 to 124 °C
CSc1ccc(C(=O)O)o1 | 126 to 128 °C
FC(F)(F)c1cc(Cl)ccc1-n1nnnc1CCl | 101 to 103 °C
Cc1cc(Br)cc2c(O)c(C#N)cnc12 | 349 to 351 °C
Nc1cc(C(=O)O)ccc1I | 209 to 211 °C
COc1cccc(NC(=O)CNc2ccccc2)c1 | 205 to 207 °C
O=c1[nH]cnc2c(Br)cccc12 | 317 to 319 °C
CCOC(=O)CN1C(=O)CNC1=O | 109 to 111 °C
CCn1nc(C)c(C(=O)O)c1C(F)F | 134 to 136 °C
COc1cc(C)c(C(=O)O)cc1OC | 146 to 148 °C
CNCc1ccc(O)cc1 | 103 to 105 °C
NNC(=O)C1Cc2ccccc2CN1Cc1ccccc1 (configuration not stated) | 128 to 130 °C
OCCOc1ccc(O)cc1 | 86 to 88 °C
O=C(O)c1cc(/C=C/c2cccc(C(F)(F)F)c2)nc2ccc(Br)cc12 | 310 to 312 °C
O=C1NCCc2ccc([N+](=O)[O-])cc21 | 228 to 230 °C
O=C(Cc1ccc(Cl)cc1Cl)c1ccc(F)cc1 | 108 to 110 °C
CCOc1c(F)cccc1C(=O)O | 43 to 45 °C
CC(C)(C)OC(=O)N1CCN(c2nnc(N)[nH]2)CC1 | 178 to 180 °C
CNC(=O)NCCC(=O)O | 129 to 131 °C
CNC(=O)c1c(Cl)ccc(S(=O)(=O)NC)c1Cl | 231 to 233 °C
Cc1nnc2c(Cl)nccn12 | 212 to 214 °C
CCC(c1ccccc1)c1nnc(N)s1 (configuration not stated) | 184 to 186 °C
Cn1c(S)nc2cc(S(N)(=O)=O)ccc21 | 313 to 315 °C
O=C(O)c1cc(S(=O)(=O)Cl)ccc1Br | 115 to 117 °C
CCCCCCc1nc(S)c2c(=O)n(C)c(=O)n(CCC)c2n1 | 172 to 174 °C

Compound | melting point
CCOC(=O)C(NC(C)=O)C(C)=O (configuration not stated) | 44 to 46 °C
Nc1ccnn1Cc1ccc(Br)s1 | 83 to 85 °C
O=C(CCl)NC(Cc1ccccc1)c1ccccc1 (configuration not stated) | 219 to 221 °C
CSCCC1NC(=O)NC1=O (configuration not stated) | 108 to 110 °C
CCn1c(SCC(=O)O)nnc1-c1cccs1 | 157 to 159 °C
CC(C)c1ccc(CCC(N)=O)cc1 | 142 to 144 °C
CNC(C(N)=O)c1cccc(Br)c1 (configuration not stated) | 111 to 113 °C
CCOC(=O)c1cc2cc(N)ccc2s1 | 89 to 91 °C
N#CCCSc1ccccc1N | 45 to 47 °C
NC(=O)NCc1ccccc1Cl | 149 to 151 °C
O=C(O)Cc1ccc([N+](=O)[O-])cc1Cl | 157 to 159 °C
O=C(O)c1cccc(Oc2cnccn2)c1 | 112 to 114 °C
O=C(O)c1ccc(NS(=O)(=O)c2ccc3c(c2)OCCO3)cc1 | 94 to 97 °C
Clc1nc(-c2ccccc2)nc2scc(-c3ccccc3)c12 | 147 to 149 °C
COc1ccc2[nH]c3c(c2c1)CC1(CC3)OCCO1 | 149 to 151 °C
COc1ccc2nc(C)c(C(=O)O)cc2c1 | 221 to 223 °C
O=C(O)c1cc(F)c(Br)c(S(=O)(=O)Cl)c1 | 213 to 215 °C
C#Cc1cccc(NC(=O)CBr)c1 | 118 to 120 °C
O=C(O)c1ccc(NC(=O)c2ccc(Br)o2)cc1 | 276 to 278 °C
O=S(=O)(Cc1nc2ccccc2[nH]1)c1ccccc1 | 215 to 217 °C
N#CCc1ccc(OCCBr)cc1 | 52 to 54 °C
CC(C)(C)OC(=O)NC1CCCCCC1=O (configuration not stated) | 67 to 69 °C
O=c1[nH]ccc2occc12 | 193 to 195 °C
O=S(=O)(Cl)C12CC3CC(CC(C3)C1)C2 | 121 to 123 °C
CN(C)C(=O)c1ccc(S(N)(=O)=O)cc1 | 206 to 208 °C

Compound | melting point
NC(=O)C1(N)CCOCC1 | 78 to 80 °C
c1ccc2sc(NCCCN3CCOCC3)nc2c1 | 182 to 184 °C
O=C(O)c1nnn(-c2ccc(Br)cc2)c1C1CC1 | 176 to 178 °C
CCCCN(C)S(=O)(=O)c1ccc(N)cc1 | 76 to 80 °C
COCCS(=O)(=O)Cc1cccc(S(=O)(=O)Cl)c1 | 109 to 111 °C
CCn1c(S)nnc1-c1cccs1 | 103 to 105 °C
CCCCS(=O)(=O)Nc1ccc(F)c(N)c1 | 71 to 73 °C
CS(=O)(=O)c1ccsc1N | 90 to 92 °C
O=c1[nH]c(N2CCOCC2)nc2scc(-c3ccccc3)c12 | 307 to 309 °C
CSc1nc(CCl)cc(=O)[nH]1 | 176 to 178 °C
Cn1cc(Br)c2cc[nH]c(=O)c21 | 195 to 197 °C
Cc1nn(C)c2c1NCC1CCCN21 (configuration not stated) | 159 to 161 °C
CC(C)(C)CC(=O)Nc1ccc(Cl)c(C(=O)O)c1 | 214 to 216 °C
O=C(c1ccc(Br)cc1)c1ccccc1F | 35 to 37 °C
COc1ccc2c(c1)C(=O)CCN2 | 114 to 116 °C
NC1c2ccccc2-c2ccccc21 | 43 to 45 °C
COc1ccccc1Nc1ncccc1C(=O)O | 175 to 177 °C
Nc1ncc(Cl)cc1S(N)(=O)=O | 226 to 228 °C
COc1ccc(-c2cc(C(=O)O)[nH]n2)cc1OC | 225 to 227 °C
CC1=CC=CC(=C2Nc3cc(F)ccc3N2C(C)C)C1=N | 185 to 187 °C
C/C(=N\NC(N)=S)c1ccccc1 | 114 to 116 °C
Cc1ccc(N)cc1S(=O)(=O)NC(C)(C)C | 131 to 133 °C
O=C(O)c1cc(-c2ccco2)nc2cc(F)ccc12 | 272 to 274 °C
Cc1ccc2sc(C3CCNCC3)nc2c1 | 111 to 113 °C
CC(=O)Nc1cccc2c1NCCC2 | 108 to 110 °C

Compound | melting point
NC(=O)c1cccnc1N1CCNCC1 | 145 to 147 °C
Cc1cc(Oc2ccccc2)c2cc([N+](=O)[O-])ccc2n1 | 167 to 169 °C
NC(=O)c1cncs1 | 194 to 196 °C
N#CCC(=O)Nc1ccncc1 | 181 to 183 °C
CCOc1cc2c(cc1CBr)OC(C)C2 (configuration not stated) | 69 to 71 °C
COC(=O)c1c(C)[nH]c(C(=O)O)c1C | 206 to 208 °C
CC(Oc1ccc(Cl)cc1[N+](=O)[O-])C(=O)O (configuration not stated) | 119 to 121 °C
Fc1ccc2oc(Cl)nc2c1 | 33 to 35 °C
NC(=O)C1CCCn2ccnc21 (configuration not stated) | 177 to 179 °C
c1cc2c[nH]nc2cn1 | 104 to 106 °C
CCC(C)C(=O)N1CCCC(C(=O)O)C1 (configuration not stated) | 118 to 120 °C
N#Cc1c(N2CCOCC2)n[nH]c1N | 195 to 197 °C
O=c1c2ccccc2nnn1CCl | 129 to 133 °C
Nc1ccc(N2CCNC(=O)C2)c(Cl)c1 | 147 to 149 °C
O=[N+]([O-])c1ccc(O)cc1Cl | 115 to 117 °C
COC(=O)c1ccn2c(I)cnc2c1 | 209 to 211 °C
Oc1ccc(Sc2ccnc3cc(Cl)ccc23)cc1 | 231 to 233 °C
Cc1c(S(=O)(=O)Cl)sc2cc(F)ccc12 | 138 to 140 °C
CNc1ccc(OCCOC)cc1 | 59 to 61 °C
O=C(O)CC1OCCc2ccccc21 (configuration not stated) | 74 to 76 °C
O=C(O)C=Cc1cc(Cl)ccc1OCc1ccc(Cl)cc1 | 162 to 164 °C
CN(C)S(=O)(=O)c1ccc(NCCO)c(C(=O)O)c1 | 176 to 178 °C
CC(C)Oc1ccc(CCCO)cc1 | 31 to 33 °C
O=S(=O)(Cl)c1cc(Br)ccc1F | 68 to 70 °C
CCNc1ccc(Br)cn1 | 67 to 69 °C

Compound | melting point
O=C(O)c1ccc2c(c1)ncn2Cc1ccccc1 | 102 to 104 °C
CC(=O)c1ccc(Cl)c(Cl)c1O | 108 to 110 °C
CCC(=O)N(C)c1ccccc1C(=O)O | 193 to 195 °C
Cc1ccc(OCc2nc(C(=O)O)cs2)cc1 | 198 to 200 °C
NC(=O)C1CCCN(c2ccc(N)cn2)C1 (configuration not stated) | 168 to 170 °C
O=C1COc2ccccc2C(=O)N1 | 149 to 151 °C
Cc1ccc(C(=O)NO)cc1O | 169 to 171 °C
FC(F)(F)c1nnc2ccc(Cl)nn12 | 69 to 71 °C
COCc1cc(C(=O)O)ccc1F | 100 to 102 °C
Cc1cccc(C(=O)O)c1NC(=O)c1ccncc1 | 249 to 251 °C
NNC(=O)c1cc(-c2ccccc2)n[nH]1 | 207 to 209 °C
O=C1CCN(c2ccc(Cl)cc2)CC1 | 54 to 56 °C
N#Cc1ccc(F)c(CBr)c1 | 44 to 46 °C
ClCc1nc(-c2ccc(Br)s2)no1 | 42 to 44 °C
O=C(CCCl)Nc1ccc2[nH]c(=O)[nH]c2c1 | 299 to 301 °C
NCC(O)c1ccco1 (configuration not stated) | 80 to 82 °C
CN(C)C(=O)c1cc(N)ccc1Cl | 158 to 160 °C
O=S(=O)(Cl)c1cn2c(n1)CCCC2 | 74 to 76 °C
Cc1cccc(C(=O)N2CCSCC2)c1N | 113 to 115 °C
CCc1ccccc1OCC(=O)NN | 107 to 109 °C
NNC(=O)NC1CC1 | 64 to 66 °C
Cc1cc(NC(=O)C2CC2)sc1C(=O)O | 184 to 186 °C
